Reference: ChEMBL document CHEMBL1221220, “Transport and signaling via the amino acid binding site of the yeast Gap1 amino acid transceptor” (Nat Chem Biol, 2009)
Changes are numbered by the printed parent chain. Calls of active or inactive are those of the source. The rule behind the calls is not given here.

Experiments:
[1] = tested on: T1, General amino-acid permease GAP1 (Saccharomyces cerevisiae), P19145 [T400C]; experiment: Induction of yeast Gap1 T400C mutant-mediated trehalose activation at 2 mM in presence of 10 mM MTSEA treated before compound addition
T1 sequence (whole entry): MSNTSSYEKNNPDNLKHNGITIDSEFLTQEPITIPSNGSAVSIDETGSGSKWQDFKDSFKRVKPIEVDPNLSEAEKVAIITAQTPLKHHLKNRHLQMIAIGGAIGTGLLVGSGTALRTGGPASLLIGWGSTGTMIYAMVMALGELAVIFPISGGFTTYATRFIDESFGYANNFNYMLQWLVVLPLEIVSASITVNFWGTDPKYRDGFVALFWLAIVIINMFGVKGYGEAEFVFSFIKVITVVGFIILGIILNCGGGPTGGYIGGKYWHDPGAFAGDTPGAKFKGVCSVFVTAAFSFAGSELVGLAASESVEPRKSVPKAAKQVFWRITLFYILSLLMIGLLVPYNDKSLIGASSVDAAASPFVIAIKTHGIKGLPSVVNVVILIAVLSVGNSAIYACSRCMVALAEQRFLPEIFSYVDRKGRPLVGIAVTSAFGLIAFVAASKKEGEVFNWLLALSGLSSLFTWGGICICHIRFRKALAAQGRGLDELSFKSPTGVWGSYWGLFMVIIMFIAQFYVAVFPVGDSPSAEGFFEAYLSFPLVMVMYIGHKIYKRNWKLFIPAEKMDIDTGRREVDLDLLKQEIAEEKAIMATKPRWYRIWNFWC

[2] = tested on: T2, General amino-acid permease GAP1 (Saccharomyces cerevisiae), P19145 [S398C]; experiment: Induction of yeast Gap1 S398C mutant-mediated trehalose activation at 10 mM
T2 sequence (whole entry): T1 sequence (whole entry) with S398C, C400T

[3] = tested on: T3, General amino-acid permease GAP1 (Saccharomyces cerevisiae), P19145 [A405C]; experiment: Induction of yeast Gap1 A405C mutant-mediated trehalose activation at 10 mM
T3 sequence (whole entry): T1 sequence (whole entry) with C400T, A405C

[4] = tested on: T4, General amino-acid permease GAP1 (Saccharomyces cerevisiae), P19145 [N391C]; experiment: Induction of yeast Gap1 N391C mutant-mediated trehalose activation at 10 mM
T4 sequence (whole entry): T1 sequence (whole entry) with N391C, C400T

NC(=O)NCCC[C@H](N)C(=O)O
inhibition [1]: Active | Activity [2]: inactive | Activity [3]: inactive | Activity [4]: inactive
